Experiment: Carrier dissolution capacity (admixing controlled amounts of active agent)
Format: physicochemical
Experimental: The dissolution capacity of different carriers was tested by admixing controlled amounts of active agent.

[1] = carrier Lipoid S100 0.0 / Urea 2.0 / Ethanol 98.0 % w/w
[2] = carrier Lipoid S100 5.0 / Urea 2.0 / Ethanol 93.0 % w/w
[3] = carrier Lipoid S100 10.0 / Urea 2.0 / Ethanol 88.0 % w/w
[4] = carrier Lipoid S100 20.0 / Urea 2.0 / Ethanol 78.0 % w/w
[5] = carrier Lipoid S100 30.0 / Urea 2.0 / Ethanol 68.0 % w/w

Which Highest complete dissolution [1] does the source give for `C[C@]12CCC(=O)C=C1CC[C@@H]1[C@@H]2[C@@H](O)C[C@@]2(C)[C@H]1CC[C@]2(O)C(=O)CO` [Hydrocortisone] here?
The Highest complete dissolution was 2.09 % w/w.

What about the Lowest incomplete dissolution [1] of the same molecule?
Its Lowest incomplete dissolution is 2.25 % w/w.

And the Lowest incomplete dissolution (carrier Lipoid S100 5.0 / Urea 1.0 / Ethanol 94.0 % w/w)?
The Lowest incomplete dissolution was 2.28 % w/w.

And the Highest complete dissolution [2]?
The Highest complete dissolution was 2.22 % w/w.

What about the Lowest incomplete dissolution [2] of the same molecule?
Its Lowest incomplete dissolution is 2.37 % w/w.

What about the Highest complete dissolution [3] of the same molecule?
The Highest complete dissolution was 2.48 % w/w.

And the Lowest incomplete dissolution [3]?
The Lowest incomplete dissolution was 2.83 % w/w.

What about the Highest complete dissolution [4] of the same molecule?
The Highest complete dissolution was 2.82 % w/w.

What about the Lowest incomplete dissolution [4] of the same molecule?
Its Lowest incomplete dissolution is 3.22 % w/w.

And the Highest complete dissolution [5]?
The Highest complete dissolution was 3.19 % w/w.

What about the Lowest incomplete dissolution [5] of the same molecule?
The Lowest incomplete dissolution was 3.50 % w/w.

And the Highest complete dissolution (carrier Lipoid S100 49.5 / Urea 1.0 / Ethanol 49.5 % w/w)?
Its Highest complete dissolution is 2.89 % w/w.

With Calcium pantothenate as the molecule, how does the Highest complete dissolution [1] read?
The Highest complete dissolution was 0.27 % w/w.

What about the Lowest incomplete dissolution [1] of the same molecule?
The Lowest incomplete dissolution was 0.40 % w/w.

And the Highest complete dissolution (carrier Lipoid S100 3.4 / Urea 2.0 / Ethanol 94.7 % w/w)?
Its Highest complete dissolution is 0.41 % w/w.

What about the Highest complete dissolution [2] of the same molecule?
Its Highest complete dissolution is 0.50 % w/w.

What about the Highest complete dissolution [3] of the same molecule?
Its Highest complete dissolution is 0.98 % w/w.

What about the Highest complete dissolution [4] of the same molecule?
Its Highest complete dissolution is 1.81 % w/w.

And the Highest complete dissolution [5]?
The Highest complete dissolution was 3.17 % w/w.

— patent US20240307294A1, “Topical Composition and Carrier for Administration of Pharmaceutically or Cosmetically Active Ingredients” (EMOLLIVET AB, priority 2013, published 2024)
